Laboratory results published in US20090028816A1, “Treatment of depression, psychosis, and anxiety” (priority 2007, published 2009).

Experiment: Range-finding tolerability and efficacy studies in neurological models
Assay type: in vivo
Conditions: intraperitoneally at dose levels up to 15 mg/kg twice a day (bid) for multiple days
Protocol: Ibudilast is obtained as a pure powder from Sigma (St. Louis, Mo.) or Haorui Pharma (Edison, N.J.) and prepared daily as a solution for intraperitoneal or oral administration. Previous range-finding tolerability and efficacy studies in neurological models indicate that ibudilast is well-tolerated intraperitoneally at dose levels up to 15 mg/kg twice a day (bid) for multiple days. An appropriate amount of ibudilast is dissolved in 100% […] (PEG) 400 (Sigma) and then diluted down to a final concentration of 35% PEG400 in sterile saline (0.9% for injection). Drug stability and concentration are validated by HPLC/MS/MS.

With `CC(C)C(=O)c1c(C(C)C)nn2ccccc12` [Ibudilast, 3-isobutyryl-2-isopropylpyrazolo[1,5-a]pyridine] the “tolerability, intraperitoneal” value was “well-tolerated”.
